From US6416965B2, “Screening methods for presqualene disphosphate analogs” (Brigham and Women's Hospital, priority 1997, dated 2002)

How the values were obtained:
[1] = system: electroporated neutrophils; assay: Superoxide anion generation (NADPH oxidase activity) by electroporated neutrophils; assay type: cell-based, human
From the text: To test the impact of compounds VI and VIII on neutrophil responses, the isolated lipids were introduced into neutrophils by electroporation prior to determining NADPH oxidase activity. […] Prenyl cysteine analogues can disrupt G-protein interaction with activated FMLP receptors (Scheer, A. & Gierschik, P. Biochemistry. 34,4952-4961 (1995), the teachings of which are incorporated herein by reference); therefore to determine compound VI's level of action, neutrophil superoxide anion generation was examined in the presence of phorbol 12-myristate 13-acetate (PMA), a potent trigger for O2- production which bypasses cell surface receptors to stimulate protein kinase C and subsequent NADPH assembly (see for example, Baggiolini, M., Boulay, F., Badwey, J. A. & Curnutte, J. T. FASEB J. 7, […] (1993); FIG. 3c).
After electroporation, cells in cytochrome c (0.7 mg/ml) were exposed (10 min, 37° C.) to PMA (10^−7 M), FMLP (10^−7 M) plus cytochalasin b (15 μg/ml), compound VI (1 μM) or compound VIII (1 μM) and supernatants monitored at 550 nm. Values represent the mean±SEM for n≧4.
(§1) Neutrophils (10^7/500 μl) were electroporated (1.65 kV/cm, 250 μF, Ω∞, Invitrogen Electroporator VI) at 0° C. in the presence of 10−^9-10−^6 M compound VI, VIII, FDP, FMP, squalene or vehicle (ethanol 0.2%). After electroporation, cells, in cytochrome c (0.7 mg/ml), were exposed (10 minutes, 37° C.) to either cytochalasin b (5 μg/mL) and FMLP (10^−7 M)(a) or PMA ((10^−7 M)(b) and supernatants monitored at […]. Electroporation gave a 49.9% reduction in FMLP-stimulated NADPH oxidase compared to naive cells. Values (FIGS. 4a and 4b) represent the mean±SEM for n≧3, d≧6. For adhesion (FIGS. 4c and 4d), changes in light transmittance were monitored (as in Fiore, S., Nicolaou, K. C., Caulfield, T., Kataoka, H. & Serhan, C. N. Biochem. J. 266, 25-31 (1990), the teachings of which are incorporated herein by reference) after addition of compounds VI, VIII (1.6 μM) or vehicle (0.5 min) and FMLP (0.5-5 μM) (2.5 min). Cell viability remained>99%. Values represent the mean±SEM for n=3, d=9. 1,4,5-inositol-triphosphate levels were determined (Amersham) in fresh PMN (10^7 cells) exposed (5 minutes, 37° C.) to compound VI, compound VIII (1 μM) or vehicle and stimulated with FMLP (10^−7M, 37° C.) (as in FIG. 4e). % Inhibition after 10 second exposure to FMLP is reported as mean±SEM for n=4, d≧8. *p <0.05 in Student's paired t-test compared with control, while “NS” indicates no significant change compared to incubations in the presence of vehicle (ethanol 0.2%) alone. Stereochemistry of PSDP and PSMP (FIG. 4f) were assigned by routine methods (Poulter, C. D. and Rilling, H. C. Acc. Chem. Res. 11, 307-313, (1978), the teachings of which are hereby incorporated by reference).

neutrophil sonicates = details: Levy et al., Nature 1997; cited from earlier work
human neutrophils = assay: FMLP-stimulated 1,4,5-inositol triphosphate (IP3) formation as surrogate for phospholipase C activity; assay type: cell-based; details: for inhibition of FMLP-triggered IP3 formation: compound 1 μM, 5 min 37° C., FMLP 100 nM, 10 seconds
Protocol: as §1
In addition to PLD, phospholipase C plays a critical role in intracellular signaling via the hydrolysis of inositol lipids to diacyl glyceride (DAG) and inositol trisphosphate (IP3) to effect a cascade of cellular events in response to pro-inflammatory stimuli. DAG activates protein kinases and is converted, in part, to phosphatidic acid by DAG kinase. Therefore, PLC together with DAG kinase provides a second major source of phosphatidic acid in human neutrophils (Agwu, DE, et al., Journal of Clinical Investigation 1991; 88:531). […] To this end, the impact of PSDP on fMLP-stimulated IP3 formation as a surrogate for phospholipase C activity was examined (FIG. 4e).
Amersham's D-myo-inositol 1,4,5-trisphosphate (IP3) [^3H] assay was used for this procedure (Amersham code TRK 1000, including product assay, the contents of which are incorporated herein by reference). The assay is based on procedures developed by Takata S. et al. J. Clin. Invest. 93:499 (1994) and Dillon S. B. et al. J. Biol. Chem. 262:11546 (1987), the contents of which are incorporated herein by reference in their entirety. [drawing 24] […]

With `CC(C)=CCC/C(C)=C/CC/C(C)=C/C1C(COP(=O)(O)OP(=O)(O)O)C1(C)CC/C=C(\C)CCC=C(C)C` (stereo in doubt) [Compound VI, presqualene diphosphate] the “inhibition of PMA activated superoxide anion generation at 10 nM” value ([1]; compound 10 nM, PMA 100 nM) was “significant inhibition still present”, the “inhibition of PMA activated superoxide anion generation” value ([1]; compound 1 μM, PMA 100 nM) was 44% and the “inhibition of neutrophil superoxide anion generation” value ([1]; nM-μM amounts) was “inhibited”. For the same compound, the “inhibition of the FMLP-triggered generation of superoxide anion” value ([1]; nM-μM quantities introduced by electroporation, FMLP 10^-7 M plus cytochalasin b) was 60%, the “stimulation of O2- production by the compound alone” value ([1]; no agonist, 1 μM (FIG. 3c)) was “neither compound VI nor VIII alone stimulated” and the “inhibition of phosphatidate mediated superoxide anion generation in human neutrophil sonicates” value (neutrophil sonicates) was “inhibited”. For the same compound, the “inhibition of FMLP-triggered IP3 formation” value (human neutrophils) was 56%, the “inhibition of FMLP-triggered IP3 formation” value (human neutrophils; listed as PSDP) was > 50% and the “inhibition of 1,4,5-inositol-triphosphate formation” value (human neutrophils; nM-μM amounts) was “inhibited”.
